{
  "source": "patent US20030104079A1",
  "about": "“Skin tissue regeneration promoters comprising ginsenoside Rb1” (Japan Science and Technology Corporation, Japan, priority 2000, published 2003)",
  "key": {"incised wound of skin": {"system": "incised wound of skin", "experiment": "Incised wound healing by intravenous infusion", "assay_type": "in vivo, Wistar rats", "conditions": "vs physiological saline", "description": "In order to investigate the effects of low dosages, low doses or low concentrations of ginsenoside Rb1 on regeneration and/or reconstruction of skin tissue, the effect(s) of continuous intravenous infusion of ginsenoside Rb1 on incised wound of skin which enabled us to observe easily regeneration phenomena of tissues or cells was examined. Male, Wistar rats (body weight about 300 g) were used. The animals were bred in a room with a 12:12 hour light-dark cycle, and water and feed were supplied ad libitum. Incised wound with length about 3 cm was made in the dorsal region of animals under inhalation anesthesia, and sutured with nylon thread. One hour later, ginsenoside Rb1 (60 μg) dissolved in physiological saline was once intravenously injected. Thereafter continuous intravenous infusion of ginsenoside Rb1 (60 μg/day) was performed for 7 days by using an Alza osmotic minipump.\nAn equal amount of physiological saline was administered intravenously in the control animals, for which the same […] was made and sutured with nylon thread.\nOn day 2 after finishing continuous intravenous administration of ginsenoside Rb1 or physiological saline, the animals were anesthetized with pentobarbital and perfused transcardially with 0.1 M phosphate buffer containing 4% paraformaldehyde. […]"}, "[1]": {"system": "cultured nerve cells (neurons)", "conditions": "same SNP culture system, Japanese Patent Appln. No. Hei 10-365560; cited from earlier work"}, "[2]": {"system": "permanent occlusion of the cortical branch of the middle cerebral artery", "conditions": "infused into the cerebroventricles of cerebral infarcted rats; cited from earlier work"}, "cerebral infarct lesion": {"system": "cerebral infarct lesion", "set-up": "therapeutic effect for cerebral apoplexy and cerebral infarction: dose or concentration left out as unconfirmed", "conditions": "cited from earlier work"}, "open wound of skin": {"system": "open wound of skin", "experiment": "Open wound (skin defect) healing by intravenous infusion after punch biopsy", "assay_type": "in vivo, Wistar rats", "conditions": "vs physiological saline", "description": "We have examined whether intravenous administration of ginsenoside Rb1 at low dosages or low doses can promote regeneration and/or reconstruction of skin tissue in diseases with defect of skin tissue (bedsore, skin ulcer, burn, frostbite, radiation injury, open wound, ultraviolet injury, electric injury, etc.). For that purpose, for example, by using male Wistar rats (body weight about 300 g), punch biopsy with diameter 6 mm was performed in the dorsal skin region of animals under inhalation anesthesia to prepare open wound, and the animals were allowed to leave as they were. About 1 hour later, ginsenoside Rb1 (12 μg) dissolved in physiological saline was once administered intravenously, then ginsenoside Rb1 was continuously infused intravenously for 7 days by using an Alza osmotic minipump (12 μg/day).\nAn equal amount of physiological saline was administered intravenously in the control animals, for which the same open wound was made to leave the animals as they were.\nOn day 2 after finishing continuous intravenous administration of ginsenoside Rb1 or physiological saline, the animals were anesthetized with pentobarbital and fixed transcardialy with perfusion of 0.1 M phosphate buffer containing 4% paraformaldehyde. Thereafter, the skin tissue including the open wound was dissected out, post-fixed and embedded in paraffin. […]"}},
  "data": [
    {"smiles": "CC(C)=CCC[C@](C)(O[C@@H]1O[C@H](CO[C@@H]2O[C@H](CO)[C@@H](O)[C@H](O)[C@H]2O)[C@@H](O)[C@H](O)[C@H]1O)[C@H]1CC[C@]2(C)[C@@H]1[C@H](O)C[C@@H]1[C@@]3(C)CC[C@H](O[C@@H]4O[C@H](CO)[C@@H](O)[C@H](O)[C@H]4O[C@@H]4O[C@H](CO)[C@@H](O)[C@H](O)[C@H]4O)C(C)(C)[C@@H]3CC[C@]12C", "note": "[ginsenoside Rb1]", "values": [
      {"measurement": "scar or granulation formation in incised wound (HE histology, FIG. 1)", "setting": "incised wound of skin; 60 μg/day continuous iv for 7 days after one iv infusion, two days after end of infusion", "value": "scar or granulation formation was obviously little"},
      {"measurement": "regeneration and reconstruction of epidermis, dermis and subcutaneous tissue after incised wound", "setting": "incised wound of skin; 60 μg/day continuous iv for 7 days", "value": "regenerated, reconstructed or recovered to the nearly normal condition"},
      {"measurement": "extracellular fluid concentration that inhibits apoptosis or apoptosis-like cell death of nerve cells", "setting": "[1]", "value": "≤ 1", "unit": "ng/mL"},
      {"measurement": "cerebral infarction and place navigation disability", "setting": "[2]", "value": "cerebral infarction-reducting effect and place navigation disability-improving effect were observed"},
      {"measurement": "therapeutic effect for cerebral infarction and cerebral apoplexy", "setting": "cerebral infarct lesion; continuous intravenous administration 6 μg/day", "value": "superior therapeutic effect"},
      {"measurement": "therapeutic effect for cerebral apoplexy and cerebral infarction", "setting": "cerebral infarct lesion; continuous intravenous administration", "value": "superior therapeutic effect"},
      {"measurement": "volume of cerebral infarct lesion", "setting": "cerebral infarct lesion; intravenous continuous administration of low dosages, JP Appln. No. Hei 10-365560", "value": "about ¼"},
      {"measurement": "scar or granulation formation in open wound (HE histology, FIG. 2)", "setting": "open wound of skin; 12 μg once then 12 μg/day continuous iv for 7 days after 6 mm punch biopsy", "value": "scar or granulation formation was obviously little"},
      {"measurement": "epithelization of open wound (FIG. 2)", "setting": "open wound of skin; 12 μg/day continuous iv for 7 days after 6 mm punch biopsy", "value": "sufficient epithelization occurred"}
    ]}
  ]
}
